Experimental data as given in patent US10597388B2, “Pyridazinone herbicides” (FMC CORPORATION, priority 2014, dated 2020).

Assays:
Assay in all cases: Test D controlled growth environment herbicide test, pre- and postemergence
Type in all cases: in vivo
[1] = test system: bromegrass, downy (downy bromegrass, Bromus tectorum)
Procedure, shortened: (§1)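 Species sown in silt loam and sprayed preemergence, or grown in peat-based medium to 2–18 cm (1- to 4-leaf stage) and sprayed postemergence, with compounds in non-phytotoxic solvent plus surfactant. Visual injury scored versus controls after 14–21 d in a controlled environment, 0 (no effect) to 100 (complete control).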

[2] = test system: barley, winter (winter barley, Hordeum vulgare)
Procedure, shortened: as §1

[3] = test system: chamomile (scentless chamomile, Matricaria inodora)
Procedure, shortened: as §1

[4] = test system: pigweed (Amaranthus retroflexus)
Procedure, shortened: as §1

[5] = test system: field violet (Viola arvensis)
Procedure, shortened: as §1

kochia (Kochia scoparia) = test system: kochia (Kochia scoparia)
Procedure, shortened: as §1

[6] = test system: foxtail, green (green foxtail, Setaria viridis)
Procedure, shortened: as §1

[7] = test system: galium (catchweed bedstraw, Galium aparine)
Procedure, shortened: as §1

[8] = test system: bluegrass (annual bluegrass, Poa annua)
Procedure, shortened: as §1

[9] = test system: chickweed (common chickweed, Stellaria media)
Procedure, shortened: as §1

[10] = test system: blackgrass (Alopecurus myosuroides)
Procedure, shortened: as §1

[11] = test system: wheat, winter (winter wheat, Triticum aestivum)
Procedure, shortened: as §1

[12] = test system: lambsquarters (Chenopodium album)
Procedure, shortened: as §1

[13] = Postemergence, 31 g ai/ha, scale 0 to 100 (0 no effect, 100 complete control)
[14] = Postemergence, 125 g ai/ha, visual rating on scale 0 (no effect) to 100 (complete control), 14 to 21 d
[15] = Postemergence, 250 g ai/ha, scale 0 to 100 (0 no effect, 100 complete control)
[16] = Preemergence, 62 g ai/ha, scale 0 to 100 (0 no effect, 100 complete control)
[17] = Preemergence, 125 g ai/ha, scale 0 to 100 (0 no effect, 100 complete control)
[18] = Preemergence, 250 g ai/ha, scale 0 to 100, 0 no effect, 100 complete control
[19] = postemergence, 62 g ai/ha, scale 0 to 100, 0 no effect, 100 complete control

SMILES: Cc1ccc2sc(Br)c(-c3c(O)c(C)nn(C)c3=O)c2c1 [Compound 79]
- Bromegrass, Downy plant response rating [1, 13]: 5
- Plant response rating, Bromegrass, Downy [1, 14]: 10
- Plant response rating, Bromegrass, Downy [1, 15]: 20
- Plant response rating (scale of 0 to 100), Bromegrass, Downy ([1]; Preemergence, 31 g ai/ha): 35
- Plant response rating, Bromegrass, Downy [1, 16]: 35
- Plant response rating, Bromegrass, Downy [1, 17]: 50
- Plant response rating, Bromegrass, Downy [1, 18]: 60
- Plant response rating, Bromegrass, Downy [1, 19]: 5
- Barley, Winter plant response rating [2, 13]: 0
- Plant response rating, Barley, Winter [2, 14]: 0
- Plant response rating, Barley, Winter [2, 15]: 5
- Plant response rating (scale of 0 to 100), Barley, Winter ([2]; Preemergence, 31 g ai/ha): 0
- Plant response rating, Barley, Winter [2, 16]: 0
- Plant response rating, Barley, Winter [2, 17]: 0
- Plant response rating, Barley, Winter [2, 18]: 10
- Plant response rating, Barley, Winter [2, 19]: 0
- Chamomile plant response rating [3, 13]: 85
- Plant response rating, Chamomile [3, 14]: 100
- Plant response rating, Chamomile [3, 15]: 100
- Plant response rating, Chamomile [3, 19]: 95
- Pigweed plant response rating [4, 13]: 100
- Plant response rating, Pigweed [4, 14]: 100
- Plant response rating, Pigweed [4, 15]: 100
- Plant response rating (scale of 0 to 100), Pigweed ([4]; Preemergence, 31 g ai/ha): 45
- Plant response rating, Pigweed [4, 16]: 100
- Plant response rating, Pigweed [4, 17]: 100
- Plant response rating, Pigweed [4, 18]: 100
- Plant response rating, Pigweed [4, 19]: 100
- Field Violet plant response rating [5, 13]: 75
- Plant response rating, Field Violet [5, 14]: 85
- Plant response rating, Field Violet [5, 15]: 95
- Plant response rating (scale of 0 to 100), Field Violet ([5]; Preemergence, 31 g ai/ha): 80
- Plant response rating, Field Violet [5, 16]: 85
- Plant response rating, Field Violet [5, 17]: 98
- Plant response rating, Field Violet [5, 18]: 100
- Plant response rating, Field Violet [5, 19]: 75
- Kochia plant response rating (kochia (Kochia scoparia); [13]): 70
- Plant response rating, Kochia (kochia (Kochia scoparia); [14]): 85
- Plant response rating, Kochia (kochia (Kochia scoparia); [15]): 95
- Plant response rating (scale of 0 to 100), Kochia (kochia (Kochia scoparia); Preemergence, 31 g ai/ha): 60
- Plant response rating, Kochia (kochia (Kochia scoparia); [16]): 55
- Plant response rating, Kochia (kochia (Kochia scoparia); [17]): 100
- Plant response rating, Kochia (kochia (Kochia scoparia); [18]): 95
- Plant response rating, Kochia (kochia (Kochia scoparia); [19]): 80
- Foxtail, Green plant response rating [6, 13]: 20
- Plant response rating, Foxtail, Green [6, 14]: 75
- Plant response rating, Foxtail, Green [6, 15]: 80
- Plant response rating (scale of 0 to 100), Foxtail, Green ([6]; Preemergence, 31 g ai/ha): 55
- Plant response rating, Foxtail, Green [6, 16]: 60
- Plant response rating, Foxtail, Green [6, 17]: 65
- Plant response rating, Foxtail, Green [6, 18]: 95
- Plant response rating, Foxtail, Green [6, 19]: 70
- Galium plant response rating [7, 13]: 95
- Plant response rating, Galium [7, 14]: 100
- Plant response rating, Galium [7, 15]: 100
- Plant response rating (scale of 0 to 100), Galium ([7]; Preemergence, 31 g ai/ha): 80
- Plant response rating, Galium [7, 16]: 90
- Plant response rating, Galium [7, 17]: 100
- Plant response rating, Galium [7, 18]: 100
- Plant response rating, Galium [7, 19]: 100
- Bluegrass plant response rating [8, 13]: 5
- Plant response rating, Bluegrass [8, 14]: 10
- Plant response rating, Bluegrass [8, 15]: 15
- Plant response rating (scale of 0 to 100), Bluegrass ([8]; Preemergence, 31 g ai/ha): 10
- Plant response rating, Bluegrass [8, 16]: 10
- Plant response rating, Bluegrass [8, 17]: 25
- Plant response rating, Bluegrass [8, 18]: 35
- Plant response rating, Bluegrass [8, 19]: 10
- Chickweed plant response rating [9, 13]: 95
- Plant response rating, Chickweed [9, 14]: 100
- Plant response rating, Chickweed [9, 15]: 100
- Plant response rating (scale of 0 to 100), Chickweed ([9]; Preemergence, 31 g ai/ha): 100
- Plant response rating, Chickweed [9, 16]: 100
- Plant response rating, Chickweed [9, 17]: 100
- Plant response rating, Chickweed [9, 18]: 100
- Plant response rating, Chickweed [9, 19]: 95
- Blackgrass plant response rating [10, 13]: 10
- Plant response rating, Blackgrass [10, 14]: 40
- Plant response rating, Blackgrass [10, 15]: 50
- Plant response rating (scale of 0 to 100), Blackgrass ([10]; Preemergence, 31 g ai/ha): 20
- Plant response rating, Blackgrass [10, 16]: 45
- Plant response rating, Blackgrass [10, 17]: 55
- Plant response rating, Blackgrass [10, 18]: 60
- Plant response rating, Blackgrass [10, 19]: 20
- Wheat, Winter plant response rating [11, 13]: 0
- Plant response rating, Wheat, Winter [11, 14]: 0
- Plant response rating, Wheat, Winter [11, 15]: 0
- Plant response rating (scale of 0 to 100), Wheat, Winter ([11]; Preemergence, 31 g ai/ha): 0
- Plant response rating, Wheat, Winter [11, 16]: 0
- Plant response rating, Wheat, Winter [11, 17]: 0
- Plant response rating, Wheat, Winter [11, 18]: 0
- Plant response rating, Wheat, Winter [11, 19]: 0
- Lambsquarters plant response rating [12, 13]: 85
- Plant response rating, Lambsquarters [12, 14]: 90
- Plant response rating, Lambsquarters [12, 15]: 100
- Plant response rating (scale of 0 to 100), Lambsquarters ([12]; Preemergence, 31 g ai/ha): 100
- Plant response rating, Lambsquarters [12, 16]: 100
- Plant response rating, Lambsquarters [12, 17]: 100
- Plant response rating, Lambsquarters [12, 18]: 100
- Plant response rating, Lambsquarters [12, 19]: 80
